Patent US7276337B2, “Compositions and methods for visual ribonuclease detection assays” (Integrated DNA Technologies, Inc., priority 2000, dated 2007)

Tests used:
Ribonuclease A = biological target: T1, Ribonuclease A (Bos taurus, UniProt P61823); experiment: Visual detection ribonuclease assay, cleavage of Substrate ODN by RNase A; assay type: biochemical, mammalian; parameters: key to Sensitivity of Substrate ODN to Ribonuclease A, relative signal intensity: +++ = maximum intensity; ++ = moderate intensity; + = faint but above background; − = negative (identical to background); conditions: visual inspection, UV excitation, Substrate 500 nM, 37° C. 60 minutes
T1 sequence (P61823 27-150): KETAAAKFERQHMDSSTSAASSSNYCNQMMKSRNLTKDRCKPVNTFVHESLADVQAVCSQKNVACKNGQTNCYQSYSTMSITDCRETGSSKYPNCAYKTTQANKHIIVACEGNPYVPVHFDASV
Procedure: Nuclease assays were conducted using the methods of the invention. SEQ ID NO:2 and SEQ ID NO:30 oligonucleotides were individually mixed in 1× Assay Buffer at a concentration of 500 nM (50 pmoles ODN in 100 ul volume) in thin-walled, UV transparent microtubes. RNase A (1 ul, diluted to 0;1 ug/ul) was added to the respective Assay Mixes. […] Assays were set up directly in microtubes as follows:
Assay Mixes were incubated at room temperature for 10 minutes. Assays were visually examined for fluorescence emission directly in the assay tubes without further manipulation. Tubes were suspended above an ultraviolet light source, visually inspected, and photographed using a digital camera. […] The “positive” and “control” reactions appeared markedly different and were easily distinguished. […] The “positive” and “control” reactions were not markedly different to visual inspection.
(§1) Nuclease assays were conducted using the method of the invention with both visual and fluorometric detection methods. Substrates were individually mixed in 1× Assay Buffer at a concentration of 50 nM (50 pmoles oligonucleotide in 1 ml volume) for fluorometric detection or at a concentration of 500 nM (50 pmoles of oligonucleotide in 100 ul volume) for visual detection. Test nucleases were added to respective Assay Mixes beginning at 1 ul stock reagent and proceeding with a 1:10 serial dilution until undetectable. Reaction mixes were incubated at 37° C. for 60 minutes. Fluorometric detection was performed as outlined in Example 2. Visual detection was performed as outlined in Example 1.
(§2) Table 6: Sensitivity of different Substrate ODNs to Ribonuclease A. A series of Substrate ODNs were synthesized and tested for sensitivity to RNase A degradation. Stock enzyme was serial diluted to achieve final concentrations of 1 ng/ml, 100 pg/ml, and 10 pg/ml as indicated. Reactions were examined for fluorescence emission by visual inspection using an ultraviolet (UV) light source for excitation. Results were scored as +++, ++, +, or − based on relative signal intensity.
(§3) It is commonly accepted that fluorometry provides for high sensitivity. To be useful, the visual method must also offer high sensitivity. Assays were conducted using the method of the invention with visual detection. Substrate SEQ ID NO:30 was mixed in 1× Assay Buffer at a concentration of 500 nM (50 pmoles ODN in 100 ul volume) in thin-walled, UV transparent tubes. […] Dilutions of stock RNase A, RNase 1, and RNase T1 were made in water. Undiluted and diluted nuclease (1 ul) was added to respective 100 ul Assay Mixes resulting in final dilution factors of 10^−2, 10^−3, 10^−4, 10^−5, 10^−6, and 10^−7. Assays were incubated at room temperature for 10 minutes and visually examined for fluorescence emission with UV excitation. […] The experiment took about 30 minutes to perform, including 15 minutes to set-up serial dilutions, 10 minutes incubation, and 5 minutes to visualize and photograph. Thus the method of the invention allows for a rapid, simple, and convenient visual assay for the presence of ribonuclease activity.

Ribonuclease T1 = biological target: T2, Ribonuclease T1 (Aspergillus oryzae, UniProt P00651); experiment: Visual detection ribonuclease assay, cleavage of Substrate ODN by RNase T1; assay type: biochemical; parameters: key to Sensitivity of Substrate ODN to Ribonuclease T1, relative signal intensity: +++ = maximum intensity; ++ = moderate intensity; + = faint but above background; − = negative (identical to background); conditions: visual inspection, UV excitation, Substrate 500 nM, 37° C. 60 minutes
T2 sequence (P00651 27-130): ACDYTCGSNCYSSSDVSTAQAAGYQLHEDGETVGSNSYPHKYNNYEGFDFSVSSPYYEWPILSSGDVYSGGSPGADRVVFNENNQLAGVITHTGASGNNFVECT
Procedure: as §1
as §2, with “Table 7:” for “Table 6:”, “Ribonuclease T1.” for “Ribonuclease A.”, “RNase T1” for “RNase A”, “of 0.001 units/ml, 0.0001 units/ml,” for “of 1 ng/ml, 100 pg/ml,”, “and 0.00001 units/ml” for “and 10 pg/ml”
as §3

Substance | Sensitivity of Substrate ODN to Ribonuclease A, relative signal intensity (Ribonuclease A; RNase A 10 pg/ml) | Sensitivity of Substrate ODN to Ribonuclease A, relative signal intensity (Ribonuclease A; RNase A 100 pg/ml) | Sensitivity of Substrate ODN to Ribonuclease A, relative signal intensity (Ribonuclease A; RNase A 1 ng/ml) | Sensitivity of Substrate ODN to Ribonuclease T1, relative signal intensity (Ribonuclease T1; RNase T1 10^−3 units/ml) | Sensitivity of Substrate ODN to Ribonuclease T1, relative signal intensity (Ribonuclease T1; RNase T1 10^−4 units/ml) | Sensitivity of Substrate ODN to Ribonuclease T1, relative signal intensity (Ribonuclease T1; RNase T1 10^−5 units/ml)
5′ Fluorescein-AAgAA-Dabcyl 3′ (NAAGAAN; 5' fluorescein and 3' Dabcyl labels, nucleotide chemistry not given here) [SEQ ID NO:4] | − | − | − | + | − | −
5′ Fluorescein-AcgcA-Dabcyl 3′ (NACGCAN; 5' fluorescein and 3' Dabcyl labels, nucleotide chemistry not given here) [SEQ ID NO:13] | − | + | ++ | +++ | ++ | −
5′ Fluorescein-AguAA-Dabcyl 3′ (NAGUAAN; 5' fluorescein and 3' Dabcyl labels, nucleotide chemistry not given here) [SEQ ID NO:7] | − | − | + | + | − | −
5′ Fluorescein-AgcuAA-Dabcyl 3′ (NAGCUAAN; 5' fluorescein and 3' Dabcyl labels, nucleotide chemistry not given here) [SEQ ID NO:11] | − | − | ++ | + | − | −
5′ Fluorescein-AAaAA-Dabcyl 3′ (NAAAAAN; 5' fluorescein and 3' Dabcyl labels, nucleotide chemistry not given here) [SEQ ID NO:6] | − | − | − | − | − | −
5′ Fluorescein-AgucaA-Dabcyl 3′ (NAGUCAAN; 5' fluorescein and 3' Dabcyl labels, nucleotide chemistry not given here) [SEQ ID NO:23] | − | + | +++ | ++ | − | −
5′ Fluorescein-AcuaA-Dabcyl 3′ (NACUAAN; 5' fluorescein and 3' Dabcyl labels, nucleotide chemistry not given here) [SEQ ID NO:17] | − | + | +++ | − | − | −
5′ Fluorescein-AgcuaA-Dabcyl 3′ (NAGCUAAN; 5' fluorescein and 3' Dabcyl labels, nucleotide chemistry not given here) [SEQ ID NO:22] | − | ++ | +++ | +++ | + | −
5′ Fluorescein-AacAA-Dabcyl 3′ (NAACAAN; 5' fluorescein and 3' Dabcyl labels, nucleotide chemistry not given here) [SEQ ID NO:8] | + | +++ | +++ | − | − | −
5′ Fluorescein-AagucA-QSY-7 3′ (NAAGUCAN; 5' fluorescein and 3' QSY-7 labels, nucleotide chemistry not given here) [SEQ ID NO:27] | + | ++ | +++ | +++ | ++ | +
5′ Fluorescein-AgaAA-Dabcyl 3′ (NAGAAAN; 5' fluorescein and 3' Dabcyl labels, nucleotide chemistry not given here) [SEQ ID NO:9] | − | − | − | + | + | −
5′ Fluorescein-AuagA-Dabcyl 3′ (NAUAGAN; 5' fluorescein and 3' Dabcyl labels, nucleotide chemistry not given here) [SEQ ID NO:16] | − | ++ | +++ | +++ | +++ | −
5′ Fluorescein-AaugcA-QSY-7 3′ (NAAUGCAN; 5' fluorescein and 3' QSY-7 labels, nucleotide chemistry not given here) [SEQ ID NO:29] | + | +++ | +++ | +++ | +++ | ++
